US12109207B2, “Methods of using 4(1H)-quinolone derivatives” (Academia Sinica, priority 2019, dated 2024)
Where two headings read alike, the source gives them in different places.

Key:
CCRF-CEM = test: Cell cytotoxicity assay (MTS), CCRF-CEM; type: cell-based; conditions: Homo sapiens
Protocol: (§1) Cells were seeded into the wells of 96-well plates (2000 cells/well). After an overnight culture, the cells were treated with different concentrations of a compound for 72 h. The CellTiter 96 AQueous one-solution cell proliferation assay (MTS) reagent was used to determine cytotoxicity. After treatment with a compound, 20 μL of the MTS reagent was added to each well and the plates were incubated at 37° C. for 1-4 h. Next, the absorbance at 490 nm of the culture medium in each well was determined using a VersaMax microplate reader (Molecular Devices).

KBtax = test: Cell cytotoxicity assay (MTS), KBtax; type: cell-based, human; conditions: for IC50: Homo sapiens, KBtax, P-gp overexpressing, paclitaxel-selected KB subline; for RF, resistance factor (IC50 in resistant cell line/IC50 in parent cell line): KBtax vs KB
Protocol: as §1

HDQP1/TAX = test: Cell cytotoxicity assay, HDQP1/TAX; type: cell-based, human; conditions: for RF, resistance factor (IC50 in resistant cell line/IC50 in parent cell line): HDQP1/TAX vs HDQP1; for IC50: Homo sapiens, HDQ-P1, Paclitaxel-resistant subline
Protocol: as §1

CEM/VBL = test: Cell cytotoxicity assay (MTS), CEM/VBL; type: cell-based, human; conditions: for RF, resistance factor (IC50 in resistant cell line/IC50 in parent cell line): CEM/VBL vs CCRF-CEM; for IC50: Homo sapiens, CEM/VBL, P-gp overexpressing, vinblastine-selected CCRF-CEM subline
Protocol: as §1

Purified porcine tubulin = target: T1, Purified porcine tubulin (Sus scrofa, UniProt P02554); test: In vitro tubulin polymerization assay; type: biochemical; conditions: 5 μM, A340 every min for 1 h at 37° C.
T1 construct: purchased Cytoskeleton
Protocol: Reagents from a Tubulin Polymerization Assay kit (Cytoskeleton) were used according to the manufacturer's instructions. Purified porcine tubulin (4 mg/mL; >99% purity) in G-PEM buffer (80 mM PIPES, 2 mM MgCl2, 0.5 mM EGTA, 1 mM GTP, 15% glycerol, pH 6.9) was mixed with each test compound in the wells of a 96-well plate. Then, the A340 value was recorded each minute for 1 h at 37° C. with the VersaMax microplate reader.

[1] = Body mass and serum biochemical markers, KBtax xenograft mice; type: in vivo, BALB/c nude mice
Protocol: The body mass of each animal and tumor volumes were measured before each drug delivery. Tumor volume was calculated as 0.5W^2L (with W being the width of the smaller diameter and L being the length of the larger diameter). The animal experiment was carried out in accordance with the procedures and guidelines of the Institutional Animal Care and Use Committee, Institute of Biomedical Sciences, Academia Sinica.

KBtax xenograft tumors = test: KBtax xenograft tumor model; type: in vivo, BALB/c nude mice; conditions: for average tumor size: after 21 days, i.p. three times a week, paclitaxel 15 mg/kg, RJ-LC-15-8 8 mg/kg
Protocol: (§2) Using the H1975, MDA-MB-231, and KBtax xenograft models, tumors were established after inoculation into the right flanks of 6-week-old BALB/c nude mice (NARLabs, Taipei, Taiwan). After establishment of the tumors, vehicle and test compounds, which had been dissolved in DMSO, were each injected intraperitoneally into a separate group of animals three times per week. The body mass of each animal and tumor volumes were measured before each drug delivery. Tumor volume was calculated as 0.5W^2L (with W being the width of the smaller diameter and L being the length of the larger diameter). The animal experiment was carried out in accordance with the procedures and guidelines of the Institutional Animal Care and Use Committee, Institute of Biomedical Sciences, Academia Sinica.

KBvin = test: Cell cytotoxicity assay (MTS), KBvin; type: cell-based, human; conditions: for IC50: Homo sapiens, KBvin, P-gp overexpressing, vincristine-selected KB subline; for RF, resistance factor (IC50 in resistant cell line/IC50 in parent cell line): KBvin vs KB
Protocol: as §1

HDQP1 = test: Cell cytotoxicity assay, HDQP1; type: cell-based; conditions: Homo sapiens, HDQ-P1; TNBC cell line HDQP1
Protocol: as §1

[2] = Body mass, MDA-MB-231 xenograft mice; type: in vivo, BALB/c nude mice; conditions: 4 or 8 mg/kg i.p. three times a week, 35 days
Protocol: as §2

P-gp = target: T2, P-gp (Homo sapiens, UniProt P08183); test: Rhodamine efflux assay; type: cell-based; conditions: KBtax cells
T2 construct: KBtax, KBvin, and CEM/VBL cancer cell lines, which overexpress P-gp; endogenous in cells; host or cells: KBtax cells (paclitaxel-selected subline of human KB)
Protocol: KBtax cells (2.5×10^5/test) were collected and held on ice for 1 h in cold medium with […] rhodamine. Then, the cells were resuspended in medium warmed to 37° C. with one of the indicated compounds and incubated for 1 h in a water bath at the same temperature for efflux determination. The fluorescence intensities were quantified by FACSCanto flow cytometry.

BT-549 = test: Cell cytotoxicity assay (MTS), BT-549; type: cell-based; conditions: Homo sapiens, BT-549, 72 h
Protocol: as §1

37T = test: Cell cytotoxicity assay (MTS), 37T; type: cell-based; conditions: Homo sapiens, 72 h
Protocol: as §1

MDA-MB-231 = test: Cell cytotoxicity assay (MTS), MDA-MB-231; type: cell-based; conditions: Homo sapiens, MDA-MB-231, 72 h
Protocol: as §1

[3] = test system: MDA-MB-231 xenograft tumors; test: MDA-MB-231 xenograft tumor model; type: in vivo, BALB/c nude mice; conditions: day 35
Protocol: as §2

H1975 cells = test: Cell cytotoxicity assay (MTS), H1975; type: cell-based, human; conditions: Homo sapiens, read-out: IC50
Protocol: as §1

H1975 xenograft tumor = H1975 xenograft tumor model; type: in vivo, BALB/c nude mice; conditions: day 21
Protocol: as §2

[4] = test system: human fibroblast (HFB) cells; test: Cell cytotoxicity assay (MTS), human fibroblast; type: cell-based; conditions: normal cell line HFB
Protocol: as §1

TNBC cell lines = test: Cytotoxicity against triple-negative breast cancer cell lines; type: cell-based; conditions: Homo sapiens; BT-549, Hs578t, MDA-MB-231, 37T, 82T; 72 h MTS; read-out: IC50 values in different TNBC cell lines
Protocol: as §1

82T = test: Cell cytotoxicity assay (MTS), 82T; type: cell-based; conditions: Homo sapiens, 72 h
Protocol: as §1

[5] = Body mass and serum biochemical markers, H1975 xenograft mice; type: in vivo, BALB/c nude mice; conditions: 4 or 8 mg/kg i.p. three times a week, end of experiment
Protocol: as §2

KB = test: Cell cytotoxicity assay (MTS), KB; type: cell-based; conditions: Homo sapiens
Protocol: as §1

Hs578t = test: Cell cytotoxicity assay (MTS), Hs578t; type: cell-based; conditions: Homo sapiens, Hs-578T, 72 h
Protocol: as §1

P-gp expression = P-gp expression immunoblotting in KBtax cells; type: cell-based, human; conditions: 24 h
Protocol: The cells were harvested and lysed in RIPA buffer (20 mM Tris-HCl, 150 mM NaCl, 1 mM Na2EDTA, 1% sodium deoxycholate, 1% IGEPAL CA-630, 0.1% SDS, pH 7.5) with protease inhibitors (Roche). Protein concentration was measured by the BCA assay. For immunoprecipitation, protein extracts were incubated with mag-beads-AS1712 or mag-beads-control at 4° C. overnight and then washed five times with PBS before immunoblotting. For immunoblotting, equivalent amounts of denatured proteins were separated through SDS-PAGE gels and then transferred to PVDF membranes (Millipore), which were each blocked with 5% nonfat milk in PBS and 0.1% Tween-20 (Sigma Aldrich) for 1 h. Then each membrane was incubated with a primary antibody overnight at 4° C., followed by incubation with a horseradish peroxidase conjugated secondary antibody for 1 h at room temperature. The signal was visualized by enhanced chemiluminescence detection, and images were acquired using a BioSpectrum Imaging System (UVP).

[6] = target: colchicine site of tubulin (Sus scrofa, UniProt P02554); test: Colchicine competition assay; type: binding; conditions: 37° C. for 1 h
Protocol: Tubulin ([…]) and colchicine ([…]) were incubated with the various concentrations of AS1712, nocodazole, or vincristine in 80 mM PIPES, 2 mM MgCl2, 0.5 mM EGTA, pH 6.9 at 37° C. for 1 h. Fluorescence intensities (excitation and emission wavelengths at 365 and 435 nm, respectively) were recorded using an Infinite M200 plate reader (Tecan). Fluorescence values were normalized to the DMSO control.

tubulin = tubulin (Sus scrofa, UniProt P02554); test: Limited proteolysis assay; type: binding; conditions: 100 μM, 30 min at 30° C.
Protocol: Tubulin (1 mg/mL) was incubated individually with a test compound for 30 min at 30° C. in 0.1 M morpholino ethanesulfonic acid, 1 mM MgCl2, 1 mM EGTA, pH 6.9, and then 25 μg/mL trypsin (TPCK-treated, Sigma Aldrich; 1:40 [w/w] trypsin/tubulin) was added to the solution for a 10-min digestion at 4° C. Samples were electrophoresed through a 15% SDS-PAGE gel and stained with Coomassie brilliant blue R250. The images were scanned and quantified using a BioSpectrum Imaging System (UVP).

[7] = end of experiment, paclitaxel 15 mg/kg, RJ-LC-15-8 8 mg/kg, mean ± SEM
[8] = 4 mg/kg intraperitoneally three times a week
[9] = 8 mg/kg intraperitoneally three times a week

Structure (SMILES) | IC50 (CCRF-CEM) | IC50 (KBtax) | RF, resistance factor (IC50 in resistant cell line/IC50 in parent cell line) (KBtax) | RF, resistance factor (IC50 in resistant cell line/IC50 in parent cell line) (HDQP1/TAX) | IC50 (HDQP1/TAX) | RF, resistance factor (IC50 in resistant cell line/IC50 in parent cell line) (CEM/VBL) | IC50 (CEM/VBL) | tubulin polymerization (Purified porcine tubulin) | AST(IU/L) [1, 7] | BUN [1, 7] | Cre [1, 7] | average tumor size (KBtax xenograft tumors) | IC50 (KBvin) | RF, resistance factor (IC50 in resistant cell line/IC50 in parent cell line) (KBvin) | IC50 (HDQP1) | IC50 (KB) | colchicine fluorescence [6] | tryptic pattern after limited trypsin digestion (tubulin) | other results
CC(=O)O[C@H]1C(=O)[C@@]2(C)[C@H]([C@H](OC(=O)c3ccccc3)[C@]3(O)C[C@H](OC(=O)[C@H](O)[C@@H](NC(=O)c4ccccc4)c4ccccc4)C(C)=C1C3(C)C)[C@]1(OC(C)=O)CO[C@@H]1C[C@@H]2O [Paclitaxel, paclitaxel] | 4 ± 0.02 nM | 101 ± 5.52 nM | 10 | 167 | 839 ± 142 nM | 214 | 857 ± 9.89 nM | enhanced polymerization | 102.8 ± 18.9 IU/L | 19 ± 1.3 mg/dL | 0.16 ± 0.02 mg/dL | 868.7±121.4 mm^3 | 708 ± 46.9 nM | 70 | 5 ± 3.05 nM |  |  |  | 
CCOC(=O)c1ccc2[nH]c(-c3cccc(F)c3)cc(=O)c2c1 [RJ-LC-15-8, Ethyl 2-(3-fluorophenyl)-4-oxo-1,4-dihydroquinoline-6-carboxylate] | 20 ± 1.71 nM | 30 ± 1.35 nM | 0.88 | 1.02 | 40 ± 3.26 nM | 0.8 | 16 ± 0.52 nM | direct inhibition | 120.7 ± 27.5 IU/L | 18.2 ± 1 mg/dL | 0.26 ± 0.04 mg/dL | 528.4±101.6 mm^3 | 35 ± 0.88 nM | 1 | 39 ± 0.49 nM | 34 ± 0.39 nM |  |  | body mass [2]: did not affect; P-gp pump activity (P-gp): did not directly inhibit; IC50 (BT-549): 21 ± 1.14 nM; IC50 (37T): 22 ± 0.61 nM; IC50 (MDA-MB-231): 35 ± 1.45 nM; average tumor size [3, 8]: 105±9.4 mm^3; average tumor size [3, 9]: 73.6±8.2 mm^3; IC50 (H1975 cells; NCI-H1975, 72 h, H1975 cells, 72 h, MTS): 24 nM; IC50 (H1975 cells; NCI-H1975, Table 8, cell line not given, values match H1975): 24 ± 1 nM; average tumor size (H1975 xenograft tumor; [8]): 1333±121.9 mm^3; average tumor size (H1975 xenograft tumor; [9]): 972.5±52.3 mm^3; IC50 [4]: > 10000 nM; IC50 (TNBC cell lines): 21 to 35 nM; IC50 (82T): 23 ± 1.27 nM; body mass [5]: not affected; Body mass and serum biochemical markers for liver and kidney functions ([1]; 8 mg/kg, end of the experiment): not negatively affected; ALT (IU/L) [1, 7]: 64 ± 10.8 IU/L; TUNEL staining of the tumor tissues (KBtax xenograft tumors; 8 mg/kg, 21 days): induced apoptosis; IC50 (Hs578t): 34 ± 4.71 nM; P-gp expression (P-gp expression): did not affect
CC[C@]1(O)C[C@H]2CN(CCc3c([nH]c4ccccc34)[C@@](C(=O)OC)(c3cc4c(cc3OC)N(C=O)[C@H]3[C@@](O)(C(=O)OC)[C@H](OC(C)=O)[C@]5(CC)C=CCN6CC[C@]43[C@@H]65)C2)C1 [Vincristine, vincristine] | 3 ± 0.04 nM | 49 ± 2.96 nM |  |  |  | 440 | 1320 ± 20.6 nM | inhibit tubulin polymerization |  |  |  |  | 817 ± 47.4 nM | 163 |  | 5 ± 0.31 nM | did not | decreased the amount of the βcol, αN, and αC fragments | 
COC(=O)Nc1nc2ccc(C(=O)c3cccs3)cc2[nH]1 [nocodazole] |  |  |  |  |  |  |  | inhibit tubulin polymerization |  |  |  |  |  |  |  |  | decreased the colchicine fluorescence in a dose-dependent manner | produced an increased amount of βcol | 
